Experimental data: patent US12668600B2 (Kumquat Biosciences Inc., priority 2023, dated 2026)

Columns and labels:
Type in all cases: biochemical
KRAS G12V = target: T1, KRAS G12V (Homo sapiens, UniProt P01116, G12V); assay: HTRF KRAS-SOS1 interaction assay, KRAS G12V; conditions: binned ≤2 μM / >2 μM, read-out: Inhibition of KRAS G12V (IC50)
T1 construct: made in house; host or cells: E. coli, e.g. BL21 (DE3)
Outline: (§1)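 GST-KRAS + anti-GST-Eu; His-hSOS1 + anti-6His-XL665; cpd in DMSO, duplicate, 10–0.01 μM; ~10 min incubation; HTRF ex 337/em 620, 665 nm; IC50 fitted on 665/620 ratio.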

KRAS G12D = target: T2, KRAS G12D (Homo sapiens, UniProt P01116, G12D); assay: HTRF KRAS-SOS1 interaction assay, KRAS G12D; conditions: binned ≤2 μM / >2 μM, read-out: Inhibition of KRAS G12D (IC50)
T2 construct: made in house; host or cells: E. coli, e.g. BL21 (DE3)
T2 sequence (P01116 1-188 isoform P01116-2 G12D): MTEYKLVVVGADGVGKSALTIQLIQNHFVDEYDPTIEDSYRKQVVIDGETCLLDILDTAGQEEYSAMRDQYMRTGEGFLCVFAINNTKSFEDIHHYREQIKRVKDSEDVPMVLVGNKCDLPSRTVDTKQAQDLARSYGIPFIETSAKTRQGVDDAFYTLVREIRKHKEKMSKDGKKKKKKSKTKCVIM
Outline: as §1

KRAS G12S = target: T3, KRAS G12S (Homo sapiens, UniProt P01116, G12S); assay: HTRF KRAS-SOS1 interaction assay, KRAS G12S; conditions: binned ≤2 μM / >2 μM, read-out: Inhibition of KRAS G12S (IC50)
T3 construct: made in house; host or cells: E. coli, e.g. BL21 (DE3)
T3 sequence (P01116 1-188 isoform P01116-2 G12S): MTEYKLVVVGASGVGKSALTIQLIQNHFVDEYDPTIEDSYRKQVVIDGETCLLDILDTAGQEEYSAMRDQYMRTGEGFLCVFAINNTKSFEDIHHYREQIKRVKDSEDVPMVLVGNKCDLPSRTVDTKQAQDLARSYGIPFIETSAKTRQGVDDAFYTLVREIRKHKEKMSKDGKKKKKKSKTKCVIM
Outline: as §1

KRAS WT = target: T4, KRAS WT (Homo sapiens, UniProt P01116); assay: HTRF KRAS-SOS1 interaction assay, wildtype KRAS; conditions: binned ≤2 μM / >2 μM, read-out: Inhibition of KRAS WT (IC50)
T4 construct: made in house; host or cells: E. coli, e.g. BL21 (DE3)
T4 sequence (P01116 1-188 isoform P01116-2): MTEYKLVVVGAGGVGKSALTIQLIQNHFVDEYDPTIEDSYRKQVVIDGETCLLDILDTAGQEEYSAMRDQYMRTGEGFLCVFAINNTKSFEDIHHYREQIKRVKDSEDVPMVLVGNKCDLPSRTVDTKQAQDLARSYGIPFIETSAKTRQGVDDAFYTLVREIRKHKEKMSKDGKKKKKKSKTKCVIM
Outline: as §1

T1 sequence (P01116 1-188 isoform P01116-2 G12V): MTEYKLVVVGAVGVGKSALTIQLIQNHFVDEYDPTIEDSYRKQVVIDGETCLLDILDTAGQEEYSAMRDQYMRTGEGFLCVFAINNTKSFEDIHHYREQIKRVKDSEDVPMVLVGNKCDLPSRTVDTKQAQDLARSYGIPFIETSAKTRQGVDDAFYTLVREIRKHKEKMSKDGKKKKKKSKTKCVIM

Compound | IC50 (KRAS G12V) [nM] | IC50 (KRAS G12D) [nM] | IC50 (KRAS G12S) [nM] | IC50 (KRAS WT) [nM]
CCO/N=C(\C)CCC[C@H](c1cccnc1N)N1CCOc2c(C(F)(F)F)c(-c3ccc(F)c4sc(N)c(C#N)c34)c(F)c3nc(OC[C@@]45CCCN4C[C@H](F)C5)nc1c23 (single isomer, unassigned) [Compound 715] | ≤ 2000 | ≤ 2000 | ≤ 2000 | ≤ 2000
Cc1cnc(N)c([C@@H](C)N2CCOc3c(C(F)(F)F)c(-c4ccc(F)c5sc(N)c(C#N)c45)c(F)c4nc(OC[C@@]56CCCN5C[C@H](F)C6)nc2c34)n1 (single isomer, unassigned) [Compound 718] | ≤ 2000 | > 2000 | ≤ 2000 | ≤ 2000
C[C@H](c1cc(Cl)cnc1N)N1CCOc2c(C(F)(F)F)c(-c3ccc(F)c4sc(N)c(C#N)c34)c(F)c3nc(OC[C@@]45CCCN4C[C@H](F)C5)nc1c23 (single isomer, unassigned) [Compound 702] | > 2000 | > 2000 | > 2000 | > 2000
C[C@H](c1cccnc1N)N1CCOc2c(C(F)(F)F)c(-c3ccc(F)c4sc(N)c(C#N)c34)c(F)c3nc(OC[C@@]45CCCN4CC(=C(F)F)C5)nc1c23 [Compound 856, 2-amino-4-(4-((R)-1-(2-aminopyridin-3-yl)ethyl)-2-(((S)-2-(difluoromethylene)tetrahydro-1H-pyrrolizin-7a(5H)-yl)methoxy)-10-fluoro-8-(trifluoromethyl)-5,6-dihydro-4H-[1,4]oxazepino[5,6,7-de]quinazolin-9-yl)-7-fluorobenzo[b]thiophene-3-carbonitrile] | ≤ 2000 | ≤ 2000 | ≤ 2000 | ≤ 2000
N#Cc1c(N)sc2c(F)ccc(-c3c(C(F)(F)F)c4c5c(nc(OC[C@@]67CCCN6C[C@@]6(CC6(F)F)C7)nc5c3F)N([C@@H](c3cccnc3N)C(F)F)CCO4)c12 (single isomer, unassigned) [Compound 897] | > 2000 | > 2000 | > 2000 | > 2000
CC(=O)c1c(F)ccc2cc(O)cc(-c3nc4c5c(nc(OC[C@@]67CCCN6C[C@H](F)C7)nc5c3F)N(C(C)c3cccnc3N)CCO4)c12 (mixture of isomers) [Compound 744] | ≤ 2000 | ≤ 2000 | ≤ 2000 | ≤ 2000
N#Cc1c(N)sc2c(F)ccc(-c3c(C(F)(F)F)c4c5c(nc(OC[C@@]67CCCN6C[C@H](F)C7)nc5c3F)N([C@H](CC3CCC3)c3cccnc3N)CCO4)c12 (single isomer, unassigned) [Compound 902] | > 2000 | > 2000 | > 2000 | > 2000
CO[C@H]1CCN(C)[C@@H]1COc1nc2c3c(c(C(F)(F)F)c(-c4ccc(F)c5sc(N)c(C#N)c45)c(F)c3n1)OCCN2[C@H](C)c1cccnc1N [Compound 673, 2-amino-4-(4-((R)-1-(2-aminopyridin-3-yl)ethyl)-10-fluoro-2-(((2R,3S)-3-methoxy-1-methylpyrrolidin-2-yl)methoxy)-8-(trifluoromethyl)-5,6-dihydro-4H-[1,4]oxazepino[5,6,7-de]quinazolin-9-yl)-7-fluorobenzo[b]thiophene-3-carbonitrile] | ≤ 2000 | ≤ 2000 | ≤ 2000 | ≤ 2000
C/C=C/[C@H](c1cccnc1N)N1CCOc2c(Cl)c(-c3ccc(F)c4sc(N)c(C#N)c34)c(F)c3nc(OC[C@@]45CCCN4C[C@H](F)C5)nc1c23 (mixture of isomers) [Compound 756, 2-amino-4-(4-((R,E)-1-(2-aminopyridin-3-yl)but-2-en-1-yl)-8-chloro-10-fluoro-2-(((2R,7aS)-2-fluorotetrahydro-1H-pyrrolizin-7a(5H)-yl)methoxy)-5,6-dihydro-4H-[1,4]oxazepino[5,6,7-de]quinazolin-9-yl)-7-fluorobenzo[b]thiophene-3-carbonitrile] | ≤ 2000 | ≤ 2000 | ≤ 2000 | ≤ 2000
N#Cc1c(N)sc2c(F)ccc(-c3c(C(F)(F)F)c4c5c(nc(OC[C@@]67CCCN6C[C@@]6(CC6(F)F)C7)nc5c3F)N([C@H](CCC(F)(F)F)c3cc(F)cnc3N)CCO4)c12 [Compound 617, 2-amino-4-(4-((R)-1-(2-amino-5-fluoropyridin-3-yl)-4,4,4-trifluorobutyl)-2-(((1S,7a′S)-2,2-difluorodihydro-1′H,3′H-spiro[cyclopropane-1,2′-pyrrolizin]-7a′(5′H)-yl)methoxy)-10-fluoro-8-(trifluoromethyl)-5,6-dihydro-4H-[1,4]oxazepino[5,6,7-de]quinazolin-9-yl)-7-fluorobenzo[b]thiophene-3-carbonitrile] | ≤ 2000 | ≤ 2000 | ≤ 2000 | ≤ 2000
CN(C)C(=O)C[C@H](c1cccnc1N)N1CCOc2c(C(F)(F)F)c(-c3ccc(F)c4sc(N)c(C#N)c34)c(F)c3nc(OC[C@@]45CCCN4C[C@H](F)C5)nc1c23 [Compound 810, (3R)-3-(9-(2-amino-3-cyano-7-fluorobenzo[b]thiophen-4-yl)-10-fluoro-2-(((2R,7aS)-2-fluorotetrahydro-1H-pyrrolizin-7a(5H)-yl)methoxy)-8-(trifluoromethyl)-5,6-dihydro-4H-[1,4]oxazepino[5,6,7-de]quinazolin-4-yl)-3-(2-aminopyridin-3-yl)-N,N-dimethylpropanamide] | ≤ 2000 | ≤ 2000 | ≤ 2000 | ≤ 2000
C[C@H](c1cncnc1N)N1CCOc2c(C(F)(F)F)c(-c3cccc4sc(N)c(C#N)c34)c(F)c3nc(OC[C@@]45CCCN4C[C@H](F)C5)nc1c23 (single isomer, unassigned) [Compound 723] | ≤ 2000 | ≤ 2000 | ≤ 2000 | ≤ 2000
C[C@H](c1cccnc1N)N1CCOc2c(C(F)(F)F)c(-c3ccc(F)c4sc(N)c(C#N)c34)c(F)c3nc(OCC4(CN5CCC(F)CC5)CC4)nc1c23 [Compound 836, 2-amino-4-(4-((R)-1-(2-aminopyridin-3-yl)ethyl)-10-fluoro-2-((1-((4-fluoropiperidin-1-yl)methyl)cyclopropyl)methoxy)-8-(trifluoromethyl)-5,6-dihydro-4H-[1,4]oxazepino[5,6,7-de]quinazolin-9-yl)-7-fluorobenzo[b]thiophene-3-carbonitrile] | ≤ 2000 | ≤ 2000 | ≤ 2000 | ≤ 2000
C[C@H](c1cccnc1N)N1CCOc2c(C(F)(F)F)c(-c3ccc(F)c4sc(N)c(C#N)c34)c(F)c3nc(OCC4(CN5CCC(=C(F)F)CC5)CC4)nc1c23 (single isomer, unassigned) [Compound 693] | ≤ 2000 | ≤ 2000 | ≤ 2000 | ≤ 2000
N#Cc1c(N)sc2c(F)ccc(-c3c(Cl)c4c5c(nc(OC[C@@]67CCCN6C[C@H](F)C7)nc5c3F)N(C(/C=C\F)c3cccnc3N)CCO4)c12 (single isomer, unassigned) [Compound 755] | ≤ 2000 | ≤ 2000 | ≤ 2000 | ≤ 2000
C[C@H](Oc1nc2c3c(nc(-c4ccc(F)c5sc(N)c(C#N)c45)c(F)c3n1)OCCN2[C@H](C)c1cccnc1N)C1CCCN1C (single isomer, unassigned) [Compound 670] | ≤ 2000 | ≤ 2000 | ≤ 2000 | ≤ 2000
C[C@@H]1COCCN1CC1(COc2nc3c4c(c(C(F)(F)F)c(-c5ccc(F)c6sc(N)c(C#N)c56)c(F)c4n2)OCCN3[C@H](C)c2cccnc2N)CC1 (single isomer, unassigned) [Compound 807] | > 2000 | > 2000 | > 2000 | > 2000
N#Cc1c(N)sc2c(F)ccc(-c3c(Cl)c4c5c(nc(OC[C@@]67CCCN6C[C@H](F)C7)nc5c3F)N(C(CCCO)c3cccnc3N)CCO4)c12 (mixture of isomers) [Compound 822, 2-amino-4-(4-(1-(2-aminopyridin-3-yl)-4-hydroxybutyl)-8-chloro-10-fluoro-2-(((2R,7aS)-2-fluorotetrahydro-1H-pyrrolizin-7a(5H)-yl)methoxy)-5,6-dihydro-4H-[1,4]oxazepino[5,6,7-de]quinazolin-9-yl)-7-fluorobenzo[b]thiophene-3-carbonitrile] | ≤ 2000 | ≤ 2000 | ≤ 2000 | ≤ 2000
C=C1CN2CCC[C@@]2(COc2nc3c4c(c(C(F)(F)F)c(-c5ccc(F)c6sc(N)c(C#N)c56)c(F)c4n2)OCCN3[C@H](C)c2cccnc2N)C1 [Compound 621, 2-amino-4-(4-((R)-1-(2-aminopyridin-3-yl)ethyl)-10-fluoro-2-(((S)-2-methylenetetrahydro-1H-pyrrolizin-7a(5H)-yl)methoxy)-8-(trifluoromethyl)-5,6-dihydro-4H-[1,4]oxazepino[5,6,7-de]quinazolin-9-yl)-7-fluorobenzo[b]thiophene-3-carbonitrile] | ≤ 2000 | ≤ 2000 | ≤ 2000 | ≤ 2000
N#Cc1c(N)sc2cccc(-c3c(Cl)c4c5c(nc(OC[C@@]67CCCN6C[C@H](F)C7)nc5c3F)N([C@@H](c3cccnc3N)C(F)F)CCO4)c12 (single isomer, unassigned) [Compound 802] | > 2000 | > 2000 | > 2000 | > 2000
